Measurements from patent publication US5475016A, “Sulphonylbenzyl-substituted imidazolypropenoic acid derivatives” (Bayer Aktiengesellschaft, priority 1992, dated 1995).

Target: T1, Angiotensin II receptor (Bos taurus, UniProt P25104)
T1 construct: from tissue; host or cells: bovine adrenal gland cortex, partially purified membrane fractions
T1 sequence (P25104 1-359): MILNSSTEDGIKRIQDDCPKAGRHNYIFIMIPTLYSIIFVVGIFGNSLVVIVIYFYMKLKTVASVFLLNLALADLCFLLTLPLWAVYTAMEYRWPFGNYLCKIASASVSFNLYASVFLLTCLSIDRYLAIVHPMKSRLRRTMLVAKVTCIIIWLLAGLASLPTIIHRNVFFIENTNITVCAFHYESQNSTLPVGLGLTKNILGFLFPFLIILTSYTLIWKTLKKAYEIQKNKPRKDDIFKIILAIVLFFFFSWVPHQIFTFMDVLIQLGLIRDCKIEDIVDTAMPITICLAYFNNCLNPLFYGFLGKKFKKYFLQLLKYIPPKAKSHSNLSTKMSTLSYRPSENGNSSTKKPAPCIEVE
Experiment: Interaction with the angiotensin II receptor on membrane fractions of the adrenal gland cortex (cattle), 3H-angiotensin II binding
Conditions: bovine adrenal gland cortex membranes, 3H-angiotensin II 3-5 nM, 60 min at room temperature
Text: Interaction of the Compounds According to the Invention with the Angiotensin II Receptor on Membrane Fractions of the Adrenal Gland Cortex (Cattle)
Adrenal gland cortices of cattle (AGC), which have been freshly removed and carefully freed from gland medulla, are comminuted in sucrose solution (0.32M) with the aid of an Ultra-Turrax (Janke & Kunkel, Staufen i.B.) to give a coarse membrane homogenate and are partially purified in two centrifugation steps to give membrane fractions. The receptor binding investigations are carried out on partially purified membrane fractions of bovine AGC using radioactive angiotensin II in an assay volume of 0.25 ml, which in detail contains the partially purified membranes (50-80 μg), ^3 H-angiotensin II (3-5 nM), test buffer solution (50 mM tris, pH 7.2, 5 mM MgCl2, 0.25% BSA) and the substances to be investigated. After an incubation time of 60 min at room temperature, the unbound radioactivity of the samples is separated by means of moistened glass fibre filters (Whatman GF/C) and the bound radioactivity is measured […] in a scintillation cocktail after washing the protein with ice-cold buffer solution (50 mM tris/HCl, pH 7.4, 5% PEG 6000). The analysis of the raw data was carried out using computer programs to give Ki or IC50 values (Ki : IC50 values corrected for the radioactivity used; IC50 values: concentration at which the substance to be investigated causes a 50% inhibition of the specific binding of the radioligand).

Row | SMILES | Ki [nM]
1 | CCCCc1nc(Cl)c(C=C(Cc2cccs2)C(=O)OC)n1Cc1ccc(S(=O)(=O)N2CCCCC2C(=O)OC(C)(C)C)cc1 (stereo not drawn) [Example 30] | 120
2 | CCCCc1nc(Cl)c(C=C(CC2CCCCC2)C(=O)O)n1Cc1ccc(S(=O)(=O)N2CCCCC2)cc1 [Example 10] | 40
3 | CCCCc1nc(Cl)c(C=C(CC2CCCC2)C(=O)O)n1Cc1ccc(S(=O)(=O)N2CCCCC2C(=O)O)cc1Cl (stereo not drawn) [Example 20] | 40
4 | CCCCc1nc(Cl)c(C=C(CC2CCCC2)C(=O)O)n1Cc1ccc(S(=O)(=O)N2CCCCC2)cc1 [Example 9] | 100

Tested on: isolated aorta rings of rabbits, contraction induced by angiotensin II (AII)
Experiment: Inhibition of the vascular contraction in isolated aorta rings of rabbits in vitro, contraction induced by angiotensin II
Assay type: cell-based, rabbit
Conditions: Oryctolagus cuniculus, effect at the 3rd = submaximal agonist concentration, read-out: IC50 against contractions induced by: AII
Experimental: Investigation of the Inhibition of the Contraction Induced with Agonists
Rabbits of both sexes are anaesthetised by a blow to the neck and bled out, or alternatively anaesthetised with Nembutal (about 60-80 mg/kg i.v.) and sacrificed by opening the thorax. The thorax aorta is taken out, freed from adhering connective tissue, divided into 1.5 mm-wide ring segments and these are individually transferred under an initial loading of about 3.5 g to 10-ml organ baths containing 95% O2 /5% CO2 -aerated Krebs-Henseleit nutrient solution, thermostated at 37° C., of the following composition: 119 mmol/l NaCl; 2.5 mmol/l CaCl2 ×2H2 O; 1.2 mmol/l KH2 PO4; 10 mmol/l glucose; 4.8 mmol/l KCl; 1.4 mmol/l MgSO4 ×7 H2 O and 25 mmol/l NaHCO3.
The contractions are detected isometrically by Statham UC2 cells by means of a bridge amplifier (ifd Mulheim or DSM Aalen) and digitised and evaluated by means of an A/D converter (System 570, Keithley, Munich). The implementation of agonist dose-response curves (DRC) is carried out hourly. With each DRC, 3 or 4 individual concentrations are applied to the baths at 4-min intervals. After the end of the DRC and subsequent washing-out cycles (16 times, in each case about 5 sec/min with the abovementioned nutrient solution), a 28-minute rest or incubation phase follows, in the course of which the contractions as a rule reach the starting value again.
The height of, in the normal case, the 3rd DRC is used as a reference quantity for the assessment of the test substance to be investigated in further runs, which test substance in the following DRCs is applied at the start of the incubation time to the baths, in each case in an increasing dose. Each aorta ring is in this case stimulated for the whole day, always with the same agonist.
Agonists and their Standard Concentrations (Administration Volume Per Individual Dose=100 μl):
For the calculation of the IC50 (concentration at which the substance to be investigated causes a 50% inhibition), the effect in each case at the 3rd=submaximal agonist concentration is used as a basis.

Row | SMILES | IC50 [nM]
5 | CCCCc1ncc(C=C(Cc2cccs2)C(=O)OC)n1Cc1ccc(S(=O)(=O)N2CCC[C@H]2C(=O)O)cc1Cl [Example 53] | 6
6 | CCCCc1ncc(C=C(Cc2ccc(F)cc2)C(=O)OC)n1Cc1ccc(S(=O)(=O)N2CCC[C@H]2C(=O)O)cc1Cl [Example 57] | 6
7 | CCCCc1ncc(C=C(Cc2cccs2)C(=O)O)n1Cc1ccc(S(=O)(=O)N2CCC[C@H]2C(=O)O)cc1Cl [Example 55] | 3

Results, then the molecule that gave them:

Row | IC50 [nM] | SMILES
8 | 4 | CCCCc1ncc(C=C(CCC)C(=O)O)n1Cc1ccc(S(=O)(=O)N2CCC[C@H]2C(=O)O)cc1Cl [Example 39]
9 | 1 | CCCCc1nc(Cl)c(C=C(CC2CCCCC2)C(=O)O)n1Cc1ccc(S(=O)(=O)N2CCC[C@H]2C(=O)O)cc1Cl [Example 24]
10 | 3 | CCCCc1ncc(C=C(CC(C)C)C(=O)O)n1Cc1ccc(S(=O)(=O)N2CCC[C@H]2C(=O)O)cc1Cl [Example 43]
11 | 11 | CCCCc1nc(Cl)c(C=C(CC2CCCC2)C(=O)OC)n1Cc1ccc(S(=O)(=O)N2CCCCC2C(=O)O)cc1Cl (racemic) [Example 2, rac-4-{[2-Butyl-4-chloro-5-(3-cyclopentyl-2-methoxycarbonylprop-1-enyl)imidazolyl]methyl}-3-chlorobenzenesulphonyl-N-(2-carboxy)piperidinide]
12 | 4 | CCCCc1ncc(C=C(CC2CCCC2)C(=O)O)n1Cc1ccc(S(=O)(=O)N2CCC[C@H]2C(=O)O)cc1Cl [Example 47]
13 | 40 | CCCCc1nc(Cl)c(C=C(CC2CCCC2)C(=O)O)n1Cc1ccc(S(=O)(=O)N2CCC[C@H]2C(=O)O)cc1 [Example 19]

Tested on: Angiotensin II-infused rat
Experiment: Blood pressure measurements on the angiotensin II-infused rat
Assay type: in vivo, male Wistar rats
Conditions: 0.1 mg/kg p.o.; angiotensin II infusion 0.3 μg/kg/min; average values
Experimental: Blood Pressure Measurements on the Angiotensin II-Infused Rat
Male Wistar rats (Moellegaard, Copenhagen, Denmark) having a body weight of 300-350 g are anaesthetised with thiopental (100 mg/kg i.p.). After tracheotomy, a catheter is inserted in the femoral artery for blood pressure measurement and a catheter for angiotensin II infusion and a catheter for substance administration are inserted in the femoral veins. After administration of the ganglionic blocker pentolinium (5 mg/kg i.v.), the angiotensin II infusion (0.3 μg/kg/min) is started. As soon as the blood pressure values have reached a stable plateau, the test substances are administered either intravenously or orally as a suspension or solution in 0.5% Tylose.

Row | SMILES | Blood pressure measurement (blood pressure change) [mm Hg]
14 | CCCCc1ncc(C=C(CC(C)C)C(=O)OCC)n1Cc1ccc(S(=O)(=O)N2CCC[C@H]2C(=O)O)cc1Cl [Example 41] | -11
15 | CCCCc1ncc(C=C(CC(C)C)C(=O)O)n1Cc1ccc(S(=O)(=O)N2CCC[C@H]2C(=O)O)cc1Cl [Example 43] | -10
16 | CCCCc1nc(Cl)c(C=C(CC2CCCCC2)C(=O)O)n1Cc1ccc(S(=O)(=O)N2CCC[C@H]2C(=O)O)cc1 [Example 23] | -17

Tested on: smooth muscle cells
Experiment: Inhibition of the proliferation of smooth muscle cells (3H-thymidine incorporation)
Assay type: cell-based, rats or pigs
Conditions: 10^-6 M
Experimental: Investigation of Inhibition of the Proliferation of Smooth Muscle Cells by the Compounds According to the Invention
To determine the antiproliferative action of the compounds, smooth muscle cells are used which have been obtained from the aortas of rats or pigs by the media explant technique [R. Ross, J. Cell. Biol. 50, 172, 1971]. The cells are inoculated into suitable culture dishes, as a rule 24-hole plates, and cultured at 37° C. in 5% CO2 for 2-3 days in Medium 199 containing 7.5% FCS and 7.5% NCS, 2 mM L-glutamine and 15 mM HEPES, pH 7.4. After this, the cells are synchronised by withdrawal of serum for 2-3 days and then stimulated into growth with AII, serum or other factors. At the same time, test compounds are added. After 16-20 hours, 1 μCi of ^3 H-thymidine is added and the incorporation of this substance into the TCA-precipitable DNA of the cells is determined after a further 4 hours.

Row | SMILES | inhibition at 1 µM [%]
17 | CCCCc1nc(Cl)c(C=CC(=O)O)n1Cc1ccc(S(=O)(=O)N2CCCC2)cc1 [Example 6] | 70
18 | CCCCc1nc(Cl)c(C=C(Cc2cccs2)C(=O)OC)n1Cc1ccc(S(=O)(=O)N2CCCCC2)cc1 [Example 27] | 30
